Laboratory results taken from ChEMBL document CHEMBL1667770, “Stereoselective first total synthesis, confirmation of the absolute configuration and bioevaluation of botryolide-E” (2011).
Values after ≈ are worked out from the molar mass of the structure shown.

Key:
Assay type in all cases: functional
Escherichia coli = test: Antimicrobial activity against Escherichia coli MTCC 443 after 24 hrs by broth dilution method; details: MTCC 443, 24 h
Klebsiella pneumoniae = test: Antimicrobial activity against Klebsiella pneumoniae MTCC 39 after 24 hrs by broth dilution method; details: MTCC 39, 24 h
[1] = tested on: Staphylococcus epidermidis; test: Antimicrobial activity against Staphylococcus epidermidis MTCC 437 after 24 hrs by broth dilution method; details: MTCC 437, 24 h
Pseudomonas aeruginosa = test: Antimicrobial activity against Pseudomonas aeruginosa MTCC 741 after 24 hrs by broth dilution method; details: MTCC 741, 24 h
Bacillus subtilis = test: Antimicrobial activity against Bacillus subtilis MTCC 441 after 24 hrs by broth dilution method; details: MTCC 441, 24 h
Staphylococcus aureus = test: Antimicrobial activity against Staphylococcus aureus MTCC 96 after 24 hrs by broth dilution method; details: MTCC 96, 24 h
Aspergillus niger [2] = test: Antimicrobial activity against Aspergillus niger MTCC 1344 at 100 ug/ml after 24 to 96 hrs by agar cup method; details: read-out: IZ
Rhizopus arrhizus [3] = test: Antimicrobial activity against Rhizopus oryzae MTCC 262 at 100 ug/ml after 24 to 96 hrs by agar cup method; details: read-out: IZ
Candida albicans [4] = test: Antimicrobial activity against Candida albicans MTCC 227 at 100 ug/ml after 24 to 96 hrs by agar cup method; details: read-out: IZ
Saccharomyces cerevisiae [5] = test: Antimicrobial activity against Saccharomyces cerevisiae MTCC 171 at 100 ug/ml after 24 to 96 hrs by agar cup method; details: read-out: IZ
Candida albicans [6] = test: Antimicrobial activity against Candida albicans MTCC 227 at 30 ug/ml after 24 to 96 hrs by agar cup method; details: read-out: IZ
Aspergillus niger [7] = test: Antimicrobial activity against Aspergillus niger MTCC 1344 at 30 ug/ml after 24 to 96 hrs by agar cup method; details: read-out: IZ
Rhizopus arrhizus [8] = test: Antimicrobial activity against Rhizopus oryzae MTCC 262 at 30 ug/ml after 24 to 96 hrs by agar cup method; details: read-out: IZ
Saccharomyces cerevisiae [9] = test: Antimicrobial activity against Saccharomyces cerevisiae MTCC 171 at 30 ug/ml after 24 to 96 hrs by agar cup method; details: read-out: IZ

With `O=C1CN(/N=C/c2ccc([N+](=O)[O-])o2)C(=O)N1` [NITROFURANTOIN] the MIC (Escherichia coli) was 25 µg/mL (≈ 105 µM), the MIC (Klebsiella pneumoniae) was 50 µg/mL (≈ 210 µM) and the MIC [1] was 50 µg/mL (≈ 210 µM). The MIC (Pseudomonas aeruginosa) was 100 µg/mL (≈ 420 µM), the MIC (Bacillus subtilis) was 100 µg/mL (≈ 420 µM) and the MIC (Staphylococcus aureus) was 50 µg/mL (≈ 210 µM).

For `CN[C@@H]1[C@H](O[C@H]2[C@H](O[C@H]3[C@H](O)[C@@H](O)[C@H](N=C(N)N)[C@@H](O)[C@@H]3N=C(N)N)O[C@@H](C)[C@]2(O)C=O)O[C@@H](CO)[C@H](O)[C@H]1O` [STREPTOMYCIN], the MIC (Escherichia coli) was 1.56 µg/mL (≈ 2.69 µM), the MIC (Klebsiella pneumoniae) was 1.56 µg/mL (≈ 2.69 µM) and the MIC (Pseudomonas aeruginosa) was 1.56 µg/mL (≈ 2.69 µM).

In the case of `CC1(C)S[C@@H]2[C@H](NC(=O)Cc3ccccc3)C(=O)N2[C@H]1C(=O)O` [PENICILLIN G], the MIC [1] was 1.56 µg/mL (≈ 4.67 µM), the MIC (Bacillus subtilis) was 1.56 µg/mL (≈ 4.67 µM) and the MIC (Staphylococcus aureus) was 1.56 µg/mL (≈ 4.67 µM).

With `CC(=O)O[C@H](C)C[C@H](O)[C@@H]1C=CC(=O)O1` [BOTRYOLIDE-E] the zone of inhibition at 100 µg/mL (Aspergillus niger [2]) was 10 mm, the MIC (Escherichia coli) was 12.5 µg/mL (≈ 58.4 µM) and the zone of inhibition at 100 µg/mL (Rhizopus arrhizus [3]) was 14 mm. For the same molecule, the MIC (Klebsiella pneumoniae) was 50 µg/mL (≈ 233 µM), the zone of inhibition at 100 µg/mL (Candida albicans [4]) was 12 mm and the MIC [1] was 50 µg/mL (≈ 233 µM). It also gave an MIC (Pseudomonas aeruginosa) of 50 µg/mL (≈ 233 µM), a zone of inhibition at 100 µg/mL (Saccharomyces cerevisiae [5]) of 8 mm and an MIC (Bacillus subtilis) of 25 µg/mL (≈ 117 µM). It also gave an MIC (Staphylococcus aureus) of 6.25 µg/mL (≈ 29.2 µM).

`Clc1ccccc1C(c1ccccc1)(c1ccccc1)n1ccnc1` [CLOTRIMAZOLE] gave a zone of inhibition at 30 µg/mL (Candida albicans [6]) of 22 mm, a zone of inhibition at 30 µg/mL (Aspergillus niger [7]) of 18 mm and a zone of inhibition at 30 µg/mL (Rhizopus arrhizus [8]) of 21 mm. It also gave a zone of inhibition at 30 µg/mL (Saccharomyces cerevisiae [9]) of 23 mm.
